Reference: US20130085106A1, “METHODS AND FORMULATIONS FOR OXYTOCIN TREATMENT OF SUBSTANCE USE, PSYCHIATRIC AND OTHER DISORDERS” (THE UNIVERSITY OF NORTH CAROLINA AT CHAPEL HILL, priority 2010, published 2013)
Ends that are not written are not given here.

Assays:
[1] = tested on: patients with paranoid or undifferentiated schizophrenia; experiment: Randomized, double blind, placebo-controlled 2-week intranasal oxytocin trial in schizophrenia (Example 7); assay type: in vivo, human
Excerpt: Twenty-three subjects were initially enrolled; 2 dropped out before randomization to treatment and 1 dropped out early because they developed an upper respiratory infection; the remaining 20 completed the protocol and constitute our study sample. Inclusion criteria were: 18-55 years of age, DSM-IV diagnosis of paranoid or undifferentiated schizophrenia ≧1 year, PANSS total score ≧60, PANSS suspiciousness/persecutory item score ≧4 or 3 on this item and ≧3 on at least one other social behavior-relevant PANSS item (hostility, passive/apathetic social withdrawal, uncooperativeness, active social withdrawal), treatment with one or more standard antipsychotic medications, stability of medication doses and symptoms ≧1 month.
(§1) This was a randomized, double blind, placebo-controlled 2-week treatment trial. Screening of each subject included a review of psychiatric and medical history, physical examination, an ECG, and blood and urine collection for standard laboratory tests. Within 1 week after screening, baseline social cognition measures were obtained followed by psychiatric ratings. Daily intranasal treatments were initiated after baseline assessments. Social cognition measures and psychiatric ratings were repeated beginning 50 minutes after the AM dose of study medication on treatment day 14. The social cognition instruments were the Brüne Theory of Mind Picture Stories Task (Brüne, (2003) Social cognition and behaviour in schizophrenia. In Brüne, Ribbert, Schiefenhövel (eds.) The social brain-evolution and pathology. John Wiley & Sons; Chichester, pp. 277-313) and the Trustworthiness Task (Adolphs et al., Nature 393: 470-474 (1998)). Psychiatric measures included the Positive and Negative Symptom Scale (PANSS) (Kay et al., Schizophr. Bull. 13: 261-276 (1987))) and the Paranoia Scale (Fenigstein & Vanable, J. Pers. Soc. Psych. 62: 129-138 (1992))). The first 10 subjects were studied as inpatients on a clinical research unit and the last 10 subjects were studied in an outpatient research clinic. Blood and urine laboratory tests, ECGs and body weights were obtained at screening and treatment day 14 in all subjects and also on treatment days 3 and 7 in inpatients.
(§2) Subjects remained on their pre-study medication regimen and doses throughout the treatment trial. They self-administered intranasal study drug twice daily; before breakfast and before dinner. Each dose consisted of six 0.1 ml insufflations (alternating between the left and right nostril) of oxytocin spray containing approximately 24 international units of oxytocin (SYNTOCINON® Spray, Novartis) or placebo. Outpatient compliance with test treatments was monitored by weighing spray vials before they were dispensed and after the morning dose on treatment day 14.
All dependent variables were examined for normality and skewness prior to analyses. We compared oxytocin and placebo group means using an unpaired t test for the following baseline variables: demographic, psychiatric history and diagnosis, inpatient versus outpatient status, social cognition and psychiatric measures. We performed a paired t test within each treatment group examining changes from baseline to two weeks on the following variables: biological (laboratory test values, vital signs), social cognition measures (Brüne Task, Trustworthiness Task), and psychiatric measures (PANSS total and subscales, Paranoia Scale). To compare the treatment groups over time on social cognition and psychiatric variables, we used analysis of covariance controlling for the baseline measure of the dependent variable.

[2] = tested on: subjects with schizophrenia; experiment: Expanded two-week intranasal oxytocin study in schizophrenia, 25 subjects (Example 8); assay type: in vivo, human; conditions: for Brüne 2nd false belief, M / Brüne 3nd false belief, M / Brüne deception, M / PANSS general score, M / PANSS negative score, M / PANSS positive score, M / PANSS social items mean (suspiciousness, hostility, social withdrawal passive/active, uncooperativeness), M / PANSS total score, M / Paranoia Scale, M / Trustworthiness task (ratings of untrustworthy faces), M: N = 14
Excerpt: as §1, §2
We have expanded our double blind, placebo-controlled pilot study described in Example 7 to include 25 subjects with schizophrenia in which we compared the effects of 14 days of twice daily intranasal oxytocin (24 IU/dose, N=14) vs. placebo (N=11) administration on PANSS (Positive and Negative Symptom Scale) total and PANSS item scores, subject self-ratings on the Paranoia Scale and performance on social cognition tests (the Brüne Theory of Mind Picture Stories Task and the Trustworthiness Task). As in the smaller study, all subjects' symptoms and psychotropic medication regimens were stable for ≧1 month prior to the treatment trial. Medication doses remained the same during the study period.
Because of our interest in oxytocin effects on social function in schizophrenia, we focused our statistical analysis on an a priori subset of PANSS items: P6 (suspiciousness/persecution [paranoia]), P7 (hostility), N4 (passive/apathetic social withdrawal), G8 (uncooperativeness) and G16 (active social avoidance). These items were used as inclusion criteria for this study (see description in Example 7). Values on these items are highly correlated in our sample (Cronbach's alpha=0.84).

[3] = tested on: alcohol dependent patients; experiment: Double-blind, placebo controlled trial of twice daily intranasal oxytocin for alcohol withdrawal (Example 2); assay type: in vivo, human
Excerpt: This is a double-blind, placebo controlled comparison of the efficacy of twice daily intranasal administration of oxytocin and placebo (saline) in reducing alcohol withdrawal symptoms, the number of bouts of withdrawal during which symptoms are of sufficient magnitude requiring lorazepam treatment (see definitions below) and the amount of lorazepam required to resolve withdrawal bouts. Treatment group assignment are random within each sex. Subjects are patients admitted to UNC Hospitals or the UNC CTRC for medical detoxification. Each treatment group is composed of up to 40 subjects. The study statistician constructs a randomization plan to randomize 80 subjects to 2 groups of 40 subjects each with a blocksize of 4. This is a permuted blocksize as this is a blind study.
Informed consent is obtained the morning after admission to the UNC Hospitals medical units or before the outpatient screening evaluation before admission to the UNC CTRC. After consent is obtained, subjects are randomly assigned to a treatment group (oxytocin or placebo). Prior to receiving their first intranasal treatment, an ECG is obtained and blood drawn to obtain serum for assay of cytokine and allopregnanolone concentrations. Subjects also rate their symptoms using the Alcohol Withdrawal Symptom Checklist (AWSC, Pittman et al., Alcohol Clin. Exp. Res. 31: 612-618 (2007)) prior to receiving their first test dose. These procedures are done/overseen by research nurses or physicians. Subjects usually receive their first intranasal test dose between 1000 and 1200 hours, which consists of 6 insufflations of SYNTOCINON® Spray (approximately 24 IU) or placebo, with each insufflation given 30 seconds apart and alternating between nostrils. Test doses taken again at 1700 hr later that day (Admission Day 1) and at 0900 and 1700 hr on Admission Days 2 and 3. Oxytocin test treatments are administered from 5 ml intranasal spray vials designed to deliver 0.1 ml metered volume per insufflation. The placebo treatments are administered from 60 ml intranasal spray vials (each containing 30 ml of solution) also designed to deliver 0.1 ml metered volume per insufflation. Vials containing oxytocin and placebo spray are blind labeled by the UNC Investigational Drug Service. Research nurses or physicians oversee subject self-administration of all intranasal test doses. After enrollment on Admission day 1 and in the morning on Admission days 2 and 3, subjects are given multiple copies of the AWSC questionnaire and requested to complete one each time the unit nurses do CIWA ratings. These questionnaires are retrieved by research staff the following morning. Shortly after the morning test dose on Admission days 2 and 3, subjects complete the Alcohol Craving Visual Analog Scales (ACVAS), the Penn Alcohol Craving Scale (PACS), and the Profile of Mood States (McNair et al., (1971) EDITS manual for the profile of mood states. San Diego, Calif. Educational and Industrial Testing Service). In addition, a consumption diary is administered and given to the subject to quantify the amount of alcohol participants have been consuming prior to admission in the study. On Days 2 and 3, research nurses also draw (and subsequently process) blood serum samples to assay cytokine and allopregnanolone concentrations shortly after the morning test dose. Additional blood is drawn after the morning test dose on admission day 2 to obtain serum for tests to be run (magnesium, Cl, Ca, Na, K, BUN, creatinine, and GGT). Another ECG is also obtained shortly after the morning test treatment on Admission day 2. Research staff retrieves on a daily basis CIWA ratings and vital sign measurements obtained on each subject from their electronic medical record.
In all subjects, lorazepam doses are administered PO or IV (if subjects cannot take medication PO) whenever CIWA ratings are ≧12. CIWA ratings are obtained 1 hr after the initial dose of lorazepam and another dose administered if CIWA ratings ≧10. […]

[4] = Burbach et al., Eur. J. Pharmacol. 94: 125-131 (1983); cited from earlier work
[5] = ANCOVA controlling for baseline, 14-day treatment

Compound: CC[C@H](C)[C@@H]1NC(=O)[C@H](Cc2ccc(O)cc2)NC(=O)[C@@H](N)CSSC[C@@H](C(=O)N2CCC[C@H]2C(=O)N[C@@H](CC(C)C)C(=O)NCC(N)=O)NC(=O)[C@H](CC(N)=O)NC(=O)[C@H](CCC(N)=O)NC1=O [Oxytocin, oxytocin]
- PANSS general subscale scores, LS mean [1, 5]: 34.34
- PANSS total scores, Least squared (LS) mean [1, 5]: 70.56
- group differences in change over the treatment period for other PANSS or social cognition variables ([1]; ANCOVA, oxytocin vs placebo): no group differences
- decline in PANSS general subscale scores compared to placebo ([1]; ANCOVA, F=3.78, p=0.069): trend toward a significantly greater decline
- decline in PANSS total scores compared to the placebo group ([1]; ANCOVA, F=4.60, p=0.047): significantly greater decline
- change in other Brüne Task measures (second order belief, third order false belief, recognition of cheating) ([1]; baseline to treatment day 14): no changes that approached significance
- declines in PANSS positive symptom subscale scores compared to the Placebo group ([2]; ANOVA, F=3.10, p=0.0923): trends toward significantly greater declines
- declines in PANSS social items mean scores compared to the Placebo group ([2]; ANOVA, F=3.15, p=0.0898): trends toward significantly greater declines
- decline in PANSS total score compared to the Placebo group ([2]; ANOVA, F=4.29, p=0.05): significantly greater decline
- Brüne 2nd false belief, M ([2]; Baseline): 1.93
- Brüne 3nd false belief, M ([2]; Baseline): 1.93
- Brüne deception, M ([2]; Baseline): 2.43
- PANSS general score, M ([2]; Baseline): 38.21
- PANSS negative score, M ([2]; Baseline): 20.36
- PANSS positive score, M ([2]; Baseline): 19.79
- PANSS social items mean (suspiciousness, hostility, social withdrawal passive/active, uncooperativeness), M ([2]; Baseline): 2.91
- PANSS total score, M ([2]; Baseline): 79.00
- Paranoia Scale, M ([2]; Baseline): 48.00
- Trustworthiness task (ratings of untrustworthy faces), M ([2]; Baseline): −15.71
- PANSS total score, M ([2]; Tx Day 14, 24 IU/dose intranasal twice daily): 69.21
- Brüne 2nd false belief, M ([2]; Tx Day 14): 2.29
- Brüne 3nd false belief, M ([2]; Tx Day 14): 2.43
- Brüne deception, M ([2]; Tx Day 14): 2.86
- PANSS general score, M ([2]; Tx Day 14): 34.07
- PANSS negative score, M ([2]; Tx Day 14): 18.00
- PANSS positive score, M ([2]; Tx Day 14): 17.14
- PANSS social items mean (suspiciousness, hostility, social withdrawal passive/active, uncooperativeness), M ([2]; Tx Day 14): 2.39
- Paranoia Scale, M ([2]; Tx Day 14): 45.00
- Trustworthiness task (ratings of untrustworthy faces), M ([2]; Tx Day 14): −10.36
- adverse events ([3]; 3 days of protocol, all 10 subjects): no unexpected adverse events
- Total lorazepam (mg) required to control withdrawal symptoms, Mean ([3]; 3 days of protocol, intranasal approx. 24 IU twice daily, N=6): 2.33 mg
- Mean CIWA Day 1 ([3]; Day 1, intranasal approx. 24 IU twice daily, N=6): 2.40
- Mean AWSC Day 1 ([3]; Day 1, self-rating, N=6): 6.17
- Mean ACVAS Day 2 ([3]; Day 2, 100 mm Alcohol Craving Visual Analog Scale, N=6): 33.83
- Mean CIWA Day 2 ([3]; Day 2, N=6): 0.81
- Mean PACS Day 2 ([3]; Day 2, Penn Alcohol Craving Scale, N=6): 13.33
- Mean AWSC Day 2 ([3]; Day 2, self-rating, N=6): 5.40
- Mean ACVAS Day 3 ([3]; Day 3, 100 mm Alcohol Craving Visual Analog Scale, N=6): 11.23
- Mean CIWA Day 3 ([3]; Day 3, N=6): 1.52
- Mean PACS Day 3 ([3]; Day 3, Penn Alcohol Craving Scale, N=6): 9.33
- Mean AWSC Day 3 ([3]; Day 3, self-rating, N=6): 3.78
- subjects that required no lorazepam treatment at all ([3]; oxytocin treatment group, 3-day detoxification): 4 of the 6

Compound: oxytocin fragment 4-9: biologically active fragment of oxytocin, reported to be more potent than the full-length molecule (QNCPLG; ends and bridges not checked; UniProt P01178 23-28, looked up, fragment)
- potency relative to the full-length molecule [4]: more potent than the full-length molecule
